Calls of active or inactive are those of the source. The calls are words filed in the database; no cut-off is given here.
Assays:
Haemonchus contortus = assay: Agonist activity at Heaemonchus contortus UNC-49B/C GABAA receptor expressed in Xenopus laevis oocytes at 500 uM by two-electrode voltage-clamp method; type: cell-based
[1] = Agonist activity at Heaemonchus contortus UNC-49B/C GABAA receptor expressed in Xenopus laevis oocytes by two-electrode voltage-clamp method; type: cell-based; settings: Haemonchus contortus

EC50 [1] [µM] | Structure (SMILES) | Activity (Haemonchus contortus)
– | NCC(Cl)CC(=O)O (stereo not drawn) | inactive
– | NCC(Br)CC(=O)O (stereo not drawn) | inactive
290 | NC/C=C/C(=O)O [t-4-AMINOCROTONIC ACID (TACA)] | –

— ChEMBL document CHEMBL4043196, “Efficient synthesis of the GABAA receptor agonist trans-4-aminocrotonic acid (TACA)” (Bioorg Med Chem Lett, 2017)
